Measured values: ChEMBL document CHEMBL6087456 (J Med Chem, 2025)
Values after ≈ are worked out from the molar mass of the structure shown.

Assays:
[1] = Kinetic solubility of compound at pH 6.5 measured after 30 mins by nephelometry; type: physicochemical; conditions: buffer, pH 6.5, read-out: Kinetic_solubility
Albumin = Albumin (Homo sapiens, UniProt P02768); assay: Protein binding to albumin (unknown origin) in ALBUMAX medium; type: ADME; conditions: read-out: PB (converted)
Cytochrome P450 2D6 = Cytochrome P450 2D6 (Homo sapiens, UniProt P10635); assay: Inhibition of CYP2D6 in human liver microsomes; type: ADME, Microsome
Plasmodium falciparum [2] = assay: Antiparasitic activity against Plasmodium falciparum 3D7 assessed as lag time before killing at 10 times EC50 pretreated for 120 hrs followed by compound removal and replacement of media without compound measured after 28 days by cell killing assay; type: functional
[3] = Metabolic stability in human liver microsomes assessed as intrinsic clearance at 0.5 uM incubated for 60 mins in presence of NADPH by tandem quadrupole-Time of Flight MS; type: ADME, Microsome; conditions: 1 h
Cytochrome P450 2B6 = molecular target: T1, Cytochrome P450 2B6 (Homo sapiens, UniProt P20813); assay: Inhibition of CYP2B6 in human liver microsomes; type: ADME, Microsome
T1 sequence (P20813 whole entry): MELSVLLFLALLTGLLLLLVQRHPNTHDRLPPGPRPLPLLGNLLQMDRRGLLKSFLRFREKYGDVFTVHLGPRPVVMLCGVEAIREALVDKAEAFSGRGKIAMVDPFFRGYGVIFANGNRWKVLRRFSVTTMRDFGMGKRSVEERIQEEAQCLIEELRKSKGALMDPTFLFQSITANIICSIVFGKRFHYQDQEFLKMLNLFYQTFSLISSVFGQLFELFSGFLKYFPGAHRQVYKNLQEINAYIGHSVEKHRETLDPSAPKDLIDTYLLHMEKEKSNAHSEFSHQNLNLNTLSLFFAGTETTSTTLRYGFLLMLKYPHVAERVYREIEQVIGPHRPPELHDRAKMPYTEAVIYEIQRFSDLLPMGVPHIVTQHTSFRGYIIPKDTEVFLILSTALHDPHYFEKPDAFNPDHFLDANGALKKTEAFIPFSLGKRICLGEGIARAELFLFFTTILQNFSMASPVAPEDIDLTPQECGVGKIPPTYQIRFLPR

Cytochrome P450 3A4 = Cytochrome P450 3A4 (Homo sapiens, UniProt P08684); assay: Inhibition of CYP3A4 in human liver microsomes; type: ADME, Microsome
Plasmodium falciparum [4] = assay: Antiparasitic activity against Plasmodium falciparum 3D7 assessed as parasitic reduction ratio at 10 times EC50 pretreated for 120 hrs followed by compound removal and replacement of media without compound measured after 28 days by cell killing assay; type: functional
[5] = Oral bioavailability in overnight-fasted male Sprague-Dawley rat at 3 mg/kg measured upto 72 hrs by LCMS analysis; type: ADME, organism-based; conditions: in vivo
[6] = Half life in overnight-fasted male Sprague-Dawley rat at 3 mg/kg, po or 1 mg/kg, iv measured upto 72 hrs by LCMS analysis; type: ADME, organism-based; conditions: in vivo
Cytochrome P450 2C8 = molecular target: T2, Cytochrome P450 2C8 (Homo sapiens, UniProt P10632); assay: Inhibition of CYP2C8 in human liver microsomes; type: ADME, Microsome
T2 sequence (P10632 whole entry): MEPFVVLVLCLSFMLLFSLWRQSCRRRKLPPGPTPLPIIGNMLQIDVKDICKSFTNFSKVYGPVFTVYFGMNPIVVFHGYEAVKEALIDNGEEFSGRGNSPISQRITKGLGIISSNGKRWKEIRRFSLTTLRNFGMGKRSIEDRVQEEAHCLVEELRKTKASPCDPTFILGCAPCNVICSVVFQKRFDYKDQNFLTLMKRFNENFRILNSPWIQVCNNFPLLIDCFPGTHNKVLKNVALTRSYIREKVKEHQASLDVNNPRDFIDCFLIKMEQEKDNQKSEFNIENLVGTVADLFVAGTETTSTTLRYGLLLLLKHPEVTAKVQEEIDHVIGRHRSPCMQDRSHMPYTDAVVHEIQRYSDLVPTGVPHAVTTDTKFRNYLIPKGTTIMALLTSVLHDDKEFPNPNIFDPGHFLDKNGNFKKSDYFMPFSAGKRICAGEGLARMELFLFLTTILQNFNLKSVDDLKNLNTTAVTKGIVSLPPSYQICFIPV

[7] = Cytotoxicity against human Jurkat cells by Cell Titer Glo assay; type: toxicity, cell-based
Plasmodium falciparum [8] = assay: Antiparasitic activity against asexual blood stage Plasmodium falciparum 3D7 incubated for 72 hrs by SYBR Green assay; type: functional, organism-based; conditions: 3D7, 72 h
Cytochrome P450 1A2 = molecular target: T3, Cytochrome P450 1A2 (Homo sapiens, UniProt P05177); assay: Inhibition of CYP1A2 in human liver microsomes; type: ADME, Microsome
T3 sequence (P05177 whole entry): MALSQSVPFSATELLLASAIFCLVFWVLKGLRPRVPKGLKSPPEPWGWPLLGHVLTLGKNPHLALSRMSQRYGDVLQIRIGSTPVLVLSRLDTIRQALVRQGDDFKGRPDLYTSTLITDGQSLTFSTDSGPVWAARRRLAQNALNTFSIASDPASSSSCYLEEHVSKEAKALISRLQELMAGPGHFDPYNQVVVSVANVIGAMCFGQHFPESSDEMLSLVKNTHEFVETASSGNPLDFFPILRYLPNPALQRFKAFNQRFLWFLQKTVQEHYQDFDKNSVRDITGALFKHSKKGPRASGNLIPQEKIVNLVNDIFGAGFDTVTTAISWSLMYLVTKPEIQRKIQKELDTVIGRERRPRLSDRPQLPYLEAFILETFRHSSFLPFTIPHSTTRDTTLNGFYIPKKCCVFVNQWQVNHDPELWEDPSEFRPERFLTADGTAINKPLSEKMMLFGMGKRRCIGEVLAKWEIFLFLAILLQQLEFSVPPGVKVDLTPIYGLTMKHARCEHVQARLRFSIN

[9] = Protein binding in human hepatocytes; type: ADME, cell-based, Hepatocyte; conditions: read-out: PB (converted)
[10] = Cytotoxicity against human HepG2 cells by Cell Titer Glo assay; type: toxicity, cell-based
[11] = Drug excretion in Sprague-Dawley rat urine at 1 mg/kg, iv; type: ADME, organism-based; conditions: read-out: Drug excretion
[12] = Oral absorption in overnight-fasted male Sprague-Dawley rat at 3 mg/kg measured upto 72 hrs by LCMS analysis; type: ADME, organism-based; conditions: in vivo
[13] = Plasma protein binding in rat measured for 6 hrs by rapid equilibrium dialysis; type: ADME, cell-free
[14] = Plasma protein binding in human measured for 6 hrs by rapid equilibrium dialysis; type: ADME, cell-free
[15] = Partition coefficient, log D of compound at pH 7.4 measured after 24 hrs by LCMS analysis; type: physicochemical; conditions: octanol/water, pH 7.4, 24 h
[16] = molecular target: Dihydroorotate dehydrogenase (quinone), mitochondrial (Homo sapiens, UniProt Q02127); assay: Inhibition of C-terminal His6-tagged recombinant human DHODH (29 to 395 residues) N-terminally truncated soluble domain extracted from Escherichia coli phage resistant BL21-DE3 using CoQD/DHA/DCIP as substrates
[17] = molecular target: T4, Dihydroorotate dehydrogenase (quinone), mitochondrial (Plasmodium falciparum (isolate 3D7), UniProt Q08210); assay: Inhibition of N-terminal His6-tagged recombinant Plasmodium falciparum DHODH (158 to 569 residues) N-terminally truncated soluble domain extracted from Escherichia coli phage resistant BL21-DE3 using CoQD/DHA/DCIP as substrates
T4 sequence (Q08210 whole entry): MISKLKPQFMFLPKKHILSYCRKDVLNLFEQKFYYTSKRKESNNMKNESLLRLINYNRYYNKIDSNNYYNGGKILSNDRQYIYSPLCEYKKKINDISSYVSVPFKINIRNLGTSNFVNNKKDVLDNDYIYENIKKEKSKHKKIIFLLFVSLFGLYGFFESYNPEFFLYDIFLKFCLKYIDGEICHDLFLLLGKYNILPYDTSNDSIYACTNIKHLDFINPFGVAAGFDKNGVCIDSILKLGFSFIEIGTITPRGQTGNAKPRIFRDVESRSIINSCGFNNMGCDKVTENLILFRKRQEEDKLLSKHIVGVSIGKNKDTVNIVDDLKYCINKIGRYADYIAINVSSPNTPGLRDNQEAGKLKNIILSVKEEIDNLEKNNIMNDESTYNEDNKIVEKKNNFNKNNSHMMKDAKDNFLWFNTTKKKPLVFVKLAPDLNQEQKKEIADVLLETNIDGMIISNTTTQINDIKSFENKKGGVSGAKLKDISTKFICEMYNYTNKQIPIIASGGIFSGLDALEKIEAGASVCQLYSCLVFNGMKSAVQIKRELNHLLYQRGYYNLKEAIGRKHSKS

[18] = Cmax in overnight-fasted male Sprague-Dawley rat at 3 mg/kg, po or 1 mg/kg, iv measured upto 72 hrs by LCMS analysis; type: ADME, organism-based; conditions: in vivo
[19] = Metabolic stability in Sprague-Dawley rat hepatocytes assessed as intrinsic clearance at 0.5 uM measured per 0.5 million cells incubated for 240 mins by tandem quadrupole-Time of Flight MS; type: ADME, cell-based, Hepatocyte; conditions: 4 h
[20] = Ratio of drug concentration in Sprague-Dawley rat brain to plasma at 1 uM measured for 5 to 60 mins by LCMS analysis; type: ADME, cell-free; conditions: time 5-60 min
[21] = Metabolic stability in human hepatocytes assessed as intrinsic clearance at 0.5 uM measured per 1.5 million cells incubated for 240 mins by tandem quadrupole-Time of Flight MS; type: ADME, cell-based, Hepatocyte; conditions: 4 h
Cytochrome P450 2C19 = Cytochrome P450 2C19 (Homo sapiens, UniProt P33261); assay: Inhibition of CYP2C19 in human liver microsomes; type: ADME, Microsome
[22] = Permeability across apical to basal side in human Caco-2 cells; type: ADME, cell-based
[23] = Volume of distribution at steady state in overnight-fasted male Sprague-Dawley rat at 3 mg/kg, po or 1 mg/kg, iv measured upto 72 hrs by LCMS analysis; type: ADME, organism-based; conditions: in vivo

Chain of Cytochrome P450 3A4 (P08684 whole entry): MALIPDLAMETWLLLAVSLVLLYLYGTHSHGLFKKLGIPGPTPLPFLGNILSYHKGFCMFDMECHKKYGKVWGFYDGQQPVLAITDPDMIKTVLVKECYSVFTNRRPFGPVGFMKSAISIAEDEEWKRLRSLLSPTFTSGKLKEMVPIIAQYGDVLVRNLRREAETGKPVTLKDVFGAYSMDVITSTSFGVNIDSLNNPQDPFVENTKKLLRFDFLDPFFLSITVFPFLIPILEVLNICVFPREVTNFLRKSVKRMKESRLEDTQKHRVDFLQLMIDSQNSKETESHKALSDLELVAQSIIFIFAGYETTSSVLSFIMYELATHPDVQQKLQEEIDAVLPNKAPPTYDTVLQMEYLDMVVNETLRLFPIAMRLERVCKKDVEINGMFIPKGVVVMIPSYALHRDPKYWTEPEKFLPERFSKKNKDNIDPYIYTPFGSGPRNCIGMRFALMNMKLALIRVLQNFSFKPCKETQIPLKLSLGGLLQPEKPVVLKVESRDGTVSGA
Chain of Dihydroorotate dehydrogenase (quinone), mitochondrial (Homo sapiens, UniProt Q02127) (Q02127 whole entry, the tested form may be a part): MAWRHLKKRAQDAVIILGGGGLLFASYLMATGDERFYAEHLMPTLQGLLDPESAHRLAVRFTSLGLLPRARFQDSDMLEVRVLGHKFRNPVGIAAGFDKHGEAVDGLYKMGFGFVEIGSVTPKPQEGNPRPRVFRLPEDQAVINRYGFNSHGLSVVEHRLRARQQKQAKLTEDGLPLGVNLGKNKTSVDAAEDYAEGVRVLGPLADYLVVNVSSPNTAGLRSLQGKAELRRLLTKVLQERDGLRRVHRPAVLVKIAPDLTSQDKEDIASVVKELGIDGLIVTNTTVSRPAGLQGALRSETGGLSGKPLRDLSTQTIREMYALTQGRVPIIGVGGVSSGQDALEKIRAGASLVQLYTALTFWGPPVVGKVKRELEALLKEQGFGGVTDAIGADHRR
Chain of Cytochrome P450 2D6 (P10635 whole entry): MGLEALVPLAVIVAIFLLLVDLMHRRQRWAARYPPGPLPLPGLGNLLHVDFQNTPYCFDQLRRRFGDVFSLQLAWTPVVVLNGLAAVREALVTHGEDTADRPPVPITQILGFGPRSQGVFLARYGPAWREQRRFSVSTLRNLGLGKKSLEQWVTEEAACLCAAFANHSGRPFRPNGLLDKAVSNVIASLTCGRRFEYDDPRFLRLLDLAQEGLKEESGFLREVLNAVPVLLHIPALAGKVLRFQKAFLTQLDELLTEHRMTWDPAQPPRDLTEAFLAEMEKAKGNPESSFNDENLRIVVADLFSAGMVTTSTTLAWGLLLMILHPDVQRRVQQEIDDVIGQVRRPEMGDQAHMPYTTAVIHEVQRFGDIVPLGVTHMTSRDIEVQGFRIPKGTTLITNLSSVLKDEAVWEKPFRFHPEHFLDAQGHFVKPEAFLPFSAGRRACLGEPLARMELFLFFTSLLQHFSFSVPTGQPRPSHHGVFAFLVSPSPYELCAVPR
Chain of Albumin (P02768 whole entry): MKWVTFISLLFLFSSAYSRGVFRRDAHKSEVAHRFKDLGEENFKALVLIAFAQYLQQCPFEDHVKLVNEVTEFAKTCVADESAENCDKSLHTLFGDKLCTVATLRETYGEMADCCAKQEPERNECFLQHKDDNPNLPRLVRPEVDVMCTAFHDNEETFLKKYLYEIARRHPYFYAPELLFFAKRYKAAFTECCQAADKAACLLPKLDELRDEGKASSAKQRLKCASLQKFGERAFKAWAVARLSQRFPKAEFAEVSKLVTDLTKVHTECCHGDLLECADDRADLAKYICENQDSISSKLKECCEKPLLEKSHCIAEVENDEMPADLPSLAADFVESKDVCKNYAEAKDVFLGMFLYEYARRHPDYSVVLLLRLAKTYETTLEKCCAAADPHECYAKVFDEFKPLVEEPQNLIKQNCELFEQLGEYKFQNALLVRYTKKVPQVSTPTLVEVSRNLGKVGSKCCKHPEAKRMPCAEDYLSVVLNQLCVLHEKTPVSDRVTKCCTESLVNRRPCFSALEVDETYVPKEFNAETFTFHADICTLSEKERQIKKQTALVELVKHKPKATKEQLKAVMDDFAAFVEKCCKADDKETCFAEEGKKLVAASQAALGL
Chain of Cytochrome P450 2C19 (P33261 whole entry): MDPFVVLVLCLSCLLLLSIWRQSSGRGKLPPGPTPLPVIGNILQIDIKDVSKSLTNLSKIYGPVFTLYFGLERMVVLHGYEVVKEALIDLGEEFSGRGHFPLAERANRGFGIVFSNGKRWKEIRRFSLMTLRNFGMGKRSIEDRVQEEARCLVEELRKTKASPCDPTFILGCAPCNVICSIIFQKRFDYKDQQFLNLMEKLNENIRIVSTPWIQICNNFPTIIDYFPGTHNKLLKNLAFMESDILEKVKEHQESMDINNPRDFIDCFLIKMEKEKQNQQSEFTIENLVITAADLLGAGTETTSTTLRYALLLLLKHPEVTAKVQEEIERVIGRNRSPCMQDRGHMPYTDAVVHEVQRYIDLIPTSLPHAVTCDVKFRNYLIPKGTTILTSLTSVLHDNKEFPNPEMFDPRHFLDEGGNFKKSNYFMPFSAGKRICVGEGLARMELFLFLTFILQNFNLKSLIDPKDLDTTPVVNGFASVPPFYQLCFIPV

Cn1nc2c(=O)n(C3CC3)ncc2c1[C@](N)(c1ccc(C(F)(F)F)c(Cl)c1)C1CC1
solubility kinetic at 0.5 h [1]: 12.5 µM (≈ 5.47 µg/mL) | fraction unbound (Albumin): 0.239 | IC50 (Cytochrome P450 2D6): > 20 µM | Time (Plasmodium falciparum [2]): ~26 h | intrinsic clearance (CLint) [3]: < 3 µL/min/mg | IC50 (Cytochrome P450 2B6): > 20 µM | IC50 (Cytochrome P450 3A4): > 20 µM | log(activity) (Plasmodium falciparum [4]): 3.1 | F [5]: 79% | t1/2 [6]: 17 h | IC50 (Cytochrome P450 2C8): 7 µM | CC50 [7]: > 20 µM | EC50 (Plasmodium falciparum [8]): 0.007 µM | IC50 (Cytochrome P450 1A2): > 20 µM | fraction unbound [9]: 0.335 | CC50 [10]: > 20 µM | dose excreted [11]: < 1% | Fa at 72 h [12]: 81% | PPB [13]: 86% | PPB [14]: 90.8%

CC[C@@](N)(c1cnc(C(F)(F)F)c(Cl)c1)c1c2ncn(C3CC3)c(=O)c2nn1C
solubility kinetic at 0.5 h [1]: 80 µM (≈ 34.1 µg/mL) | fraction unbound (Albumin): 0.703 | logD [15]: 3.44 | IC50 (Cytochrome P450 2D6): > 20 µM | intrinsic clearance (CLint) [3]: < 3 µL/min/mg | IC50 (Cytochrome P450 2B6): > 20 µM | IC50 [16]: > 30 µM | IC50 (Cytochrome P450 3A4): > 20 µM | F [5]: 79% | CC50 [7]: > 20 µM | EC50 (Plasmodium falciparum [8]): 0.007 µM | IC50 (Cytochrome P450 1A2): > 20 µM | fraction unbound [9]: 0.589 | CC50 [10]: > 20 µM | dose excreted [11]: < 1% | Fa at 72 h [12]: 64% | IC50 [17]: 0.038 µM

CCn1cc(C2CC2)c2c(Cc3ccc(C(F)(F)F)nc3)n(C)nc2c1=O
solubility kinetic at 0.5 h [1]: 130 µM (≈ 48.9 µg/mL) | fraction unbound (Albumin): 0.5 | intrinsic clearance (CLint) [3]: 9 µL/min/mg | IC50 [16]: > 100 µM | F [5]: 65% | Cmax [18]: 4.4 µM | CLH [19]: 2.3 µL/min | EC50 (Plasmodium falciparum [8]): 0.022 µM | Fa at 72 h [12]: 71% | BPR [20]: 0.65 | CLH [21]: 1.2 µL/min

Cn1nc2c(=O)n(C3CC3)ccc2c1[C@](O)(c1cnc(C(F)(F)F)c(Cl)c1)C(F)(F)F
solubility kinetic at 0.5 h [1]: 20 µM (≈ 9.34 µg/mL) | fraction unbound (Albumin): 0.338 | logD [15]: 2.3 | IC50 (Cytochrome P450 2C19): 6.7 µM | IC50 (Cytochrome P450 2D6): > 20 µM | permeability [22]: Permeable | intrinsic clearance (CLint) [3]: < 3 µL/min/mg | IC50 (Cytochrome P450 2B6): > 20 µM | IC50 [16]: > 30 µM | IC50 (Cytochrome P450 3A4): > 20 µM | F [5]: > 63% | CC50 [7]: > 20 µM | EC50 (Plasmodium falciparum [8]): 0.001 µM | IC50 (Cytochrome P450 1A2): > 20 µM | fraction unbound [9]: 0.249 | CC50 [10]: > 20 µM | dose excreted [11]: < 1% | Fa at 72 h [12]: 100% | BPR [20]: 0.79 | PPB [13]: 75.9% | PPB [14]: 68.5%

CC[C@@](O)(c1cnc(C(F)(F)F)c(Cl)c1)c1c2ccn(C3CC3)c(=O)c2nn1C
solubility kinetic at 0.5 h [1]: 40 µM (≈ 17.1 µg/mL) | fraction unbound (Albumin): 0.511 | logD [15]: 2.4 | Vdss [23]: 1.22 L/kg | intrinsic clearance (CLint) [3]: < 3 µL/min/mg | EC50 (Plasmodium falciparum [8]): 0.001 µM | fraction unbound [9]: 0.676 | Fa at 72 h [12]: 67% | PPB [13]: 89.4% | PPB [14]: 94%
